The values that follow come from BindingDB's records for doi:10.1021/acsmedchemlett.0c00340 (California Institute of Technology, 2020).

The nature of the assay: Positive allosteric modulator activity at human alpha1beta2S GABA-A receptor expressed in Xenopus laevis oocytes assessed as change in GABA EC50 at 40 uM by two electrode voltage-clamp assay. A general note: Two-electrode voltage clamp is typically applied to oocytes expressing channels or transporters.

What is called EC50 is the midpoint of the concentration-response curve. For `CN1CC[C@]2(O)c3cc(Br)ccc3N(C)[C@]12c1ccccc1`, the EC50 turned out to be 16 µM.

As for `CN1CC[C@]2(O)c3ccccc3N(C)[C@]12c1ccccc1`, the EC50 came to 13 µM.

In the case of `CN1CC[C@]2(O)c3cc(I)ccc3N(C)[C@]12c1ccccc1`, the EC50 amounted to 9 µM.
